Reference: article PMC10692362 (Acta Pharmaceutica Sinica. B, 2023)
Like-named read-outs stand apart in the source and are kept apart here.

What was measured:
[1] = target: T1, human ERα LBD (Homo sapiens, UniProt P03372); assay: Competitive fluorescence polarization binding assay, ERα; details: for RBA ERα: IC50 estradiol/IC50 compound × 100, estradiol = 100%; for α/β ratio: ratio of RBA ERα to RBA ERβ
T1 sequence (P03372 311-547 limits assumed): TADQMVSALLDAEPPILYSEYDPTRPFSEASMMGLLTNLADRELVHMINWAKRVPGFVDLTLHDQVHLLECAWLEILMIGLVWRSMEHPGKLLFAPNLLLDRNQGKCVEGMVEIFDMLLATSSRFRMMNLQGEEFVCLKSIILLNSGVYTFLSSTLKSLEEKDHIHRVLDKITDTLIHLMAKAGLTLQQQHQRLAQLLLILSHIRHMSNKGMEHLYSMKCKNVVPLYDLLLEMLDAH

[2] = tested on: T-47D^D538G cells; assay: Cell viability assay; type: cell-based, human; details: Homo sapiens, 72 h, read-out: T-47D^D538G IC50
[3] = tested on: T-47D cells; assay: Cell viability assay; type: cell-based, human; details: Homo sapiens, T47D, 72 h, read-out: T-47D IC50
[4] = tested on: T-47D^Y537S cells; assay: Cell viability assay; type: cell-based, human; details: Homo sapiens, 72 h, read-out: T-47D^Y537S IC50
[5] = target: human ERβ LBD (Homo sapiens, UniProt Q92731); assay: Competitive fluorescence polarization binding assay, ERβ; details: for RBA ERβ: IC50 estradiol/IC50 compound × 100, estradiol = 100%
[6] = tested on: MCF-7 cells; assay: Cell viability assay; type: cell-based, human; details: Homo sapiens, MCF7, 72 h, read-out: MCF-7 IC50

Sequence of human ERβ LBD (Q92731 264-498 limits assumed): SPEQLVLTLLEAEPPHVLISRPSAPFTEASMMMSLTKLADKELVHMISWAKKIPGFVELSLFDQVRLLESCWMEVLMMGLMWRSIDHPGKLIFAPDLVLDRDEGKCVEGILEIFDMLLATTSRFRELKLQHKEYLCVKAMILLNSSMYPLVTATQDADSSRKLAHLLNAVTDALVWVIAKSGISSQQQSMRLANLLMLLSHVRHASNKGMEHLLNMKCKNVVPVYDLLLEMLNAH

Row | SMILES | Ki [1] [µM] | RBA ERα [1] [%] | α/β ratio [1] | IC50 [2] [µM] | IC50 [3] [µM] | IC50 [4] [µM] | Ki [5] [µM] | RBA ERβ [5] [%] | IC50 [6] [µM] | Ki ([1]; read-out: Ki ERα) [µM] | Ki ([5]; read-out: Ki ERβ) [µM]
1 | C/C=C/C(=O)Nc1ccc(C2=C(c3ccc(O)cc3)C3OC2CC3S(=O)(=O)Oc2ccccc2)cc1 (stereo not drawn) [Compound 28b, Phenyl-5-(4-((E)-but-2-enamido)phenyl)-6-(4-hydroxyphenyl)-7-oxabicyclo[2.2.1]hept-5-ene-2-sulfonate] | 0.0002 | 14.08 ± 0.25 | 1.35 | 17.1 ± 0.65 | 25.6 ± 0.98 | > 31 | 0.00064 | 10.40 ± 0.23 | 0.44 ± 0.11 |  | 
2 | CC(C)=CC(=O)Nc1ccc(C2=C(c3ccc(O)cc3)C3OC2CC3S(=O)(=O)Oc2ccccc2)cc1 (stereo not drawn) [Compound 28c, Phenyl-6-(4-hydroxyphenyl)-5-(4-(3-methylbut-2-enamido)phenyl)-7-oxabicyclo[2.2.1]hept-5-ene-2-sulfonate] | 0.00012 | 22.13 ± 0.92 | 24.59 | 17.6 ± 0.89 | 24.9 ± 0.77 | > 31 | 0.00741 | 0.90 ± 0.25 | 0.35 ± 0.02 |  | 
3 | C=CC(=O)Nc1ccc(C2=C(c3ccc(O)cc3)C3OC2CC3S(=O)(=O)Oc2ccccc2)cc1 (stereo not drawn) [Compound 28a, Phenyl-5-(4-acrylamidophenyl)-6-(4-hydroxyphenyl)-7-oxabicyclo[2.2.1]hept-5-ene-2-sulfonate] | 0.00015 | 18.55 ± 0.34 | 15.59 | > 31 | > 31 | > 31 | 0.00561 | 1.19 ± 0.27 | 5.07 ± 0.71 |  | 
4 | CC(C)=CC(=O)Nc1ccc(C2=C(c3ccc(O)cc3)C3OC2CC3S(=O)(=O)N(CC(F)(F)F)c2ccc(F)cc2)cc1 (stereo not drawn) [Compound 29g, N-(4-(5-(N-(4-Fluorophenyl)-N-(2,2,2-trifluoroethyl)sulfamoyl)-3-(4-hydroxyphenyl)-7-oxabicyclo[2.2.1]hept-2-en-2-yl)phenyl)-3-methylbut-2-enamide] | 0.00037 | 7.52 ± 0.29 | 7.37 | 7.82 ± 0.47 | 5.28 ± 0.23 | > 31 | 0.00654 | 1.02 ± 0.13 | 0.64 ± 0.1 |  | 
5 | O=C(CBr)Nc1ccc(OS(=O)(=O)C2CC3OC2C(c2ccc(O)cc2)=C3c2ccc(O)cc2)cc1 (stereo not drawn) [Compound 26f, 4-(2-Bromoacetamido)phenyl-5,6-bis(4-hydroxyphenyl)-7-oxabicyclo[2.2.1]hept-5-ene-2-sulfonate] |  |  | 2.08 | > 31 | 9.11 ± 0.21 | > 31 |  | 3.86 ± 0.34 | 0.5 ± 0.3 |  | 
6 | C#CC(=O)Nc1ccc(OS(=O)(=O)C2CC3OC2C(c2ccc(O)cc2)=C3c2ccc(O)cc2)cc1 (stereo not drawn) [Compound 26d, 4-Propiolamidophenyl-5,6-bis(4-hydroxyphenyl)-7-oxabicyclo[2.2.1]hept-5-ene-2-sulfonate] | 0.00325 | 0.85 ± 0.08 | 1.73 | 9.33 ± 0.46 | 6.91 ± 0.29 | 8.93 ± 0.25 | 0.0136 | 0.49 ± 0.04 | 1.79 ± 0.4 |  | 
7 | C=CC(=O)Nc1ccc(C2=C(c3ccc(O)cc3)C3OC2CC3S(=O)(=O)N(CC(F)(F)F)c2ccc(O)cc2)cc1 (stereo not drawn) [Compound 29a, N-(4-(3-(4-Hydroxyphenyl)-5-(N-(4-hydroxyphenyl)-N-(2,2,2-trifluoroethyl)sulfamoyl)-7-oxabicyclo[2.2.1]hept-2-en-2-yl)phenyl)acrylamide] |  | 20.03 ± 0.25 | 2.97 | 5.55 ± 0.24 | 2.85 ± 0.29 | > 31 |  | 6.74 ± 0.21 | 0.18 ± 0.05 | 0.00014 | 0.00099
